Assay [1] concerns the target T1, NEK2 kinase (Accession No. NP-002488) (Homo sapiens, UniProt P51955).
T1 construct: purchased ThermoFisher Scientific (Invitrogen)
T1 sequence (P51955 1-445): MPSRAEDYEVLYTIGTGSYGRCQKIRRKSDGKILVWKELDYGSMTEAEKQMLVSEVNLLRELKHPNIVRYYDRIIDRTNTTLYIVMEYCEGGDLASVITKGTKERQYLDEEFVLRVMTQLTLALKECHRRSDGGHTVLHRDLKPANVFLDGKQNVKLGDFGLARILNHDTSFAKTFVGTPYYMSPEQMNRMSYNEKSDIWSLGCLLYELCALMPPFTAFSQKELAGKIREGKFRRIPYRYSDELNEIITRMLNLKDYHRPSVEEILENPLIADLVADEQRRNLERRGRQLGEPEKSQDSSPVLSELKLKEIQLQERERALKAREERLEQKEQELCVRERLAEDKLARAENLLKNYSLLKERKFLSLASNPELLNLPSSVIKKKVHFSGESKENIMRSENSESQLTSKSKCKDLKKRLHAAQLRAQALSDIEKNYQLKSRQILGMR
In words: HotSpot Kinase Assay, NEK2. It is filed as biochemical. The protocol: (§1) In this example, the compounds described herein were tested for their inhibitory activity against NEK2 and/or Aurora A using the HotSpot™ Kinase Assay (Reaction Biology Corp.). The assay was performed according to the manufacturer's protocol, as detailed below. The NEK2 kinase (Accession No. NP-002488) and Aurora A kinase (Accession No. NP-940839) for use in these assays was sourced from ThermoFisher Scientific (Invitrogen).
(§2) The base Reaction Buffer used in this experiment contained the following: 20 mM Hepes (pH 7.5), 10 mM MgCl2, 1 mM EGTA, 0.02% Brij™-35, 0.02 mg/ml BSA, 0.1 mM Na3VO4, 2 mM DTT, and 1% DMSO. The required cofactors were added individually to each kinase reaction.
(§3) Testing compounds were dissolved in 100% DMSO to a specific concentration. The serial dilution was conducted by Integra Viaflo Assist in DMSO.
(§4) The substrate was prepared in freshly prepared Reaction Buffer. The required cofactors were delivered to the substrate solution described above. NEK2 kinase or Aurora A kinase was delivered to the substrate solution and gently mixed. Next, the compounds in 100% DMSO were transferred to the kinase reaction mixture by Acoustic technology (Echo550; nanoliter range) and incubated for 20 min at room temperature. ^33P-ATP (Specific activity 10 μCi/μl) was delivered into the reaction mixture to initiate the reaction. The reaction was incubated for 2 hours at room temperature. Radioactivity was then detected by the filter-binding method. Kinase activity data were expressed as the percent remaining kinase activity in test samples compared to vehicle (dimethyl sulfoxide) reactions. IC50 values and curve fits were obtained using Prism (GraphPad Software).

Assay [2] deals with T2, Aurora A kinase (Accession No. NP-940839) (Homo sapiens, UniProt O14965).
T2 construct: purchased ThermoFisher Scientific (Invitrogen)
T2 sequence (O14965 1-403): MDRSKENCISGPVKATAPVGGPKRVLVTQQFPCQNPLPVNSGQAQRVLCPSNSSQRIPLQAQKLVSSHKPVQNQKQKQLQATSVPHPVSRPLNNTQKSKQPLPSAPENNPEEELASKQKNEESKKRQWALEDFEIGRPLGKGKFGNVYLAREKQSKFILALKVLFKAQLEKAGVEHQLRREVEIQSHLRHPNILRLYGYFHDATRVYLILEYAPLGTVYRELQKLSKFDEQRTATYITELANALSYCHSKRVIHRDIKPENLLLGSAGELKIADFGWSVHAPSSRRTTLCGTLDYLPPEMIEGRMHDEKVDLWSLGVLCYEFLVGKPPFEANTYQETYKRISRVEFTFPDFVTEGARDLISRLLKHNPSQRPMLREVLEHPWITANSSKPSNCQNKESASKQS
In words: HotSpot Kinase Assay, Aurora A. It is filed as biochemical. The protocol: as §1, §2, §3, §4

The target of assay [3] is T3, NEK2 (Homo sapiens, UniProt P51955).
T3 construct: expressed in transfected cells; host or cells: HEK293
T3 sequence (P51955 1-445): T1 sequence (P51955 1-445)
Description: NanoBRET Target Engagement Intracellular Kinase Assay for NEK2 in transfected HEK293 cells. It is filed as cell-based. As for the experimental part:
In this example, the compounds described herein were tested for their inhibitory activity against NEK2 using a model of in vivo activity by the NanoBRET™ Target Engagement Intracellular Kinase Assay (Reaction Biology Corp.). The assay was performed according to the manufacturer's protocol, as detailed below.
HEK293 cells were cultivated (70-80% confluence) prior to the assay. The sample was trypsinized and HEK293 cells were collected.
To prepare lipid: DNA complexes, a 10 μg/ml solution of DNA in Opti-MEM without serum was prepared that consisted of the following ratios of carrier DNA and DNA encoding NanoLuc® fusion: 9.0 μg/ml of Transfection Carrier DNA, 1.0 μg/ml of NanoLuc fusion vector DNA and 1 ml of Opti-MEM without phenol red. The solution was mixed thoroughly. 30 μl of FuGENE HD Transfection Reagent was added into each milliliter of DNA mixture to form lipid: DNA complex. The sample was mixed by inversion 10 times and then incubated at ambient temperature for 20 minutes to allow complexes to form. In a sterile, conical tube, 1 part of lipid:DNA complex was mixed with 20 parts of HEK293 cells in suspension. The resulting sample was mixed gently by inversion 5 times. The cell and lipid: DNA complex was dispensed into a sterile tissue culture dish and incubated for 22-24 hours.
Each test compound is delivered from the compound source plate to the wells of 384-well white NBS plate by Echo 550.
Step 3. Preparation of Cells with NanoBRET™ Tracer K5 Reagent:
The medium was removed from the dish with the transfected HEK293 cells via aspiration, trypsinized and cells were allowed to dissociate from the dish. Trypsin was neutralized using medium containing serum and centrifuged at 200×g for 5 minutes to pellet the cells. The cell density was adjusted to 2×10^5 cells/ml in Opti-MEM without phenol red.
The Complete 20× NanoBRET™ Tracer K5 Reagent with Tracer Dilution Buffer was prepared according to the manufacturer's instructions. One part of Complete 20× NanoBRET™ Tracer Reagent was added to 20 parts of cells in the tube. The sample was mixed gently by inversion 10 times. Next, the cell suspension was dispensed into white, 384-well NBS plates with a final tracer K5 concentration of 2 μM. The plate was incubated at 37° C., 5% CO2 for 1 hour. A separate set of samples without tracer were prepared for background correction steps.
The plate was removed from the incubator and equilibrated to room temperature for 15 minutes. The 3× Complete Substrate plus Inhibitor Solution in Assay Medium (Opti-MEMR I Reduced Serum Medium, no phenol red) was prepared just before measuring BRET. The 3× Complete Substrate plus Inhibitor Solution was added to each well of the 384-well plate and incubated for 2-3 minutes at room temperature. The donor emission wavelength (460 nm) and acceptor emission wavelength (600 nm) were measured using the Envision 2104 plate reader.
To generate raw BRET ratio values, the acceptor emission value (600 nm) was divided by the donor emission value (460 nm) for each sample. To correct for background, the BRET ratio in the absence of tracer (average of no-tracer control samples) was subtracted from the BRET ratio of each sample.
BRET Ratio=[(Acceptor sample÷Donor sample)−(Acceptor no-tracer control÷Donor no-tracer control)]
On the technique in general: In BRET a luciferase serves as donor, and the signal depends on an acceptor being close.

Assay [4] relates to SW480 cells. Description: Cell cycle analysis in SW480 cells by flow cytometry. In kind it is cell-based. As to conditions: 24-hour treatment. The protocol: (§5) Reagents. MDA-MB-231 (Breast adenocarcinoma, triple negative breast cancer) and SW480 (colorectal adenocarcinoma, stem-like subtype) cells were purchased from ATCC and cultured as per manufacturer's instruction. Thymidine (Sigma, T9250) stock solution (100 mM) was prepared in PBS. 2′-Deoxycytidine (Sigma, D897) stock solution (240 mM) was prepared in distilled H2O. Nocodazole (Selleck Chemicals, S2775) stock solution (5 mg/mL) was made in dimethyl sulfoxide (DMSO). FxCycle Far Red stain (F10348) for cell cycle analysis was purchased from Thermo Fisher Scientific.
Flow Cytometry Analysis. The SW480 cells were treated with NEK2 inhibitors at a concentration ranging from 0-1000 nM for 24 hours. After 24 hours of treatment, cells were detached and dissociated using 0.25% trypsin. After trypsinization, cells were washed with ice-cold PBS and fixed in 4% paraformaldehyde (PFA) at room temperature for 20 minutes. After fixation, cells were permeabilized by incubating in 90% methanol for 30 minutes on ice. Subsequently, cells were stained with FITC conjugated anti-EZH2 antibody (1:50, Cell Signaling technology) for 2 hours at room temperature and FxCycle Far Red stain (Thermo Fisher Scientific) for visualization of EZH2 expression and cell cycle, respectively. […] A minimum of 100,000 events were analyzed in each sample, and the results were evaluated using FlowJo software. […]
A general note: In flow cytometry, cells or beads pass a laser one at a time.

Assay [5] relates to EZH2 expression. Description: Flow cytometry analysis for EZH2 expression in SW480 cells. As to conditions: Homo sapiens, 24 hours treatment, 0-1000 nM, haploid and diploid cells, read-out: dose dependent decrease in EZH2 expression, IC50. It is filed as cell-based. As for the experimental part: as §5
Antibodies. Polyclonal antibodies to phosphorylated-Ser55 Hec1 (PA5-85846; 1:1000) were purchased from ThermoFisher Scientific, and Phospho-Thr320 PP1α (2581S; 1:1000) and Total PP1α (2582S; 1:1000) were purchased from Cell Signaling Technologies. Monoclonal antibodies to Phospho-Ser10 Histone H3 (53348S; 1:1000), Total Histone H3 (14269; 1:5000), and EZH2-FITC (30233, 1:50) antibodies were purchased from Cell Signaling Technologies; Total Hec1 (ab109496; 1:10000) was purchased from Abcam; and Total NEK2 (sc-55601; 1:200) and GAPDH (sc-365062; 1:1000-2000) antibodies were purchased from Santa Cruz Technologies.
Flow Cytometry Analysis. […] A minimum of 100,000 events were analyzed in each sample, and the results were evaluated using FlowJo software. […]

[6] abbreviates: HotSpot Kinase Assay, read-out: NEK2 IC50.
Setting [7] is: HotSpot Kinase Assay, read-out: Aurora A IC50.
[8] abbreviates: NEK2 target engagement, read-out: NanoBRET IC50.
Where [9] appears, read: comparator compounds, read-out: Aurora A Activity.
The mark [10] stands for this setting: comparator compounds, read-out: NEK2 Activity HotSpot Assay.

Read-outs that look alike come from different tables or passages of the source.

In US20230090742A1, “AMINOPYRIMIDINYLAMINOBENZONITRILE DERIVATIVES AS NEK2 INHIBITORS” (Sumitomo Pharma Oncology, Inc., priority 2020, published 2023) one finds IC50 and cell cycle distribution data, which are given here for nine compounds.

Turning to `COc1cnc(Nc2ccc(N3CCNCC3)cc2)nc1Nc1cccc(OCc2ccccc2F)c1C#N` [Compound 10, 2-((2-fluorobenzyl)oxy)-6-((5-methoxy-2-((4-(piperazin-1-yl)phenyl)amino)pyrimidin-4-yl)amino)benzonitrile], the IC50 is not above 5 nM in assay [1] (setting [6]), more than 1000 nM in assay [2] (setting [7]) and 50 to 150 nM in assay [3] (setting [8]).

Turning to `O=C(O)[C@]1(Cc2cccc(Nc3nccs3)n2)CC[C@@H](Oc2cccc(Cl)c2F)CC1` [MK-5108], in assay [4], the cell cycle distribution entry is listed as “significantly arrested cells in G2-M phase”.

Turning to `Cc1cnc(Nc2ccc(N3CCNCC3)cc2)nc1Nc1cccc(OCc2ccccc2F)c1C#N` [Compound 12, 2-((2-fluorobenzyl)oxy)-6-((5-methyl-2-((4-(piperazin-1-yl)phenyl)amino)pyrimidin-4-yl)amino)benzonitrile], the IC50 in assay [1] (setting [6]) is not above 5 nM; in assay [3] (setting [8]) it was not above 50 nM; in assay [5], 214 nM.

On to `CCN(CCCOc1ccc2c(Nc3cc(CC(=O)Nc4cccc(F)c4)n[nH]3)ncnc2c1)CCOP(=O)(O)O` [AZD-1152], for which the cell cycle distribution entry in assay [4] was “significantly arrested cells in G2-M phase”.

Regarding `CN1CCN(c2ccc(Nc3ncc(Cl)c(Nc4ccc(C(N)=O)c(OCc5ccccc5F)c4)n3)cc2)CC1` [CF-03, 4-((5-chloro-2-((4-(4-methylpiperazin-1-yl)phenyl)amino)-pyrimidin-4-yl)-amino)-2-((2-fluorobenzyl)oxy)benzamide, reference compound], in assay [2] (setting [9]), the IC50 was 0.1 nM.

Turning to `CN(C)CCn1cc(Nc2ncc(Cl)c(Nc3cccc(OCc4ccccc4F)c3C#N)n2)cn1` [Compound 32, 2-((5-chloro-2-((1-(2-(dimethylamino)ethyl)-1H-pyrazol-4-yl)amino)pyrimidin-4-yl)amino)-6-((2-fluorobenzyl)oxy)benzonitrile], the IC50 in assay [1] (setting [6]) was more than 15 nM; in assay [2] (setting [7]) it was more than 1000 nM.

As to `N#Cc1c(Nc2nc(Nc3ccc(N4CCOCC4)cc3)ncc2Cl)cccc1OCc1ccccc1F` [Compound 2, 2-((5-chloro-2-((4-morpholinophenyl)amino)pyrimidin-4-yl)amino)-6-((2-fluorobenzyl)oxy)benzonitrile], the figures for the IC50 in assay [1] (setting [6]), in assay [2] (setting [7]) and in assay [3] (setting [8]) were not above 5 nM, more than 1000 nM and more than 150 nM, respectively.

On to `CN1CCN(Cc2ccc(Nc3ncc(Cl)c(Nc4ccc(C#N)c(OCc5ccccc5F)c4)n3)cc2)CC1` [CF-01, 4-((5-chloro-2-((4-((4-methylpiperazin-1-yl)methyl)phenyl)-amino)-pyrimidin-4-yl)amino)-2-((2-fluorobenzyl)-oxy)benzonitrile, reference compound], for which the IC50 in assay [1] (setting [10]) was more than 1000 nM; in assay [2] (setting [9]), 796 nM; in assay [3] (comparator compounds, read-out: NEK2 Activity NanoBRET assay) it was 264 nM.

`CN1CCN(c2ccc(Nc3ncc(Cl)c(Nc4ccc(C#N)c(OCc5ccccc5F)c4)n3)cc2)CC1` [CF-02, 4-((5-chloro-2-((4-(4-methylpiperazin-1-yl)phenyl)-amino)-pyrimidin-4-yl)amino)-2-((2-fluorobenzyl)-oxy)benzonitrile, reference compound]: the IC50 in assay [1] (setting [10]) was 264 nM; in assay [2] (setting [9]) it was 313 nM.
